From PubChem BioAssay AID1745844 (Carcinogenic Potency Database (CPDB), 2022)
The source made the active and inactive calls. The rule behind the calls is not given here.

Test system: rodent lifetime carcinogenesis bioassay, tumor incidence TD50
Assay: chronic cancer bioassays in animals – CPDB, compiled studies (AID 1745844)

`CN(C)c1ccc(C(=C2C=CC(=[N+](C)C)C=C2)c2ccc(N(C)C)cc2)cc1` gave a TD50 (mouse, strain B6C3F1, females, in feed, site: Harderian gland, lesion: adenoma, dosed 107 weeks, study length 107 weeks) of 305 mg/kg/day, a TD50 (mouse, strain B6C3F1, females, in feed, site: liver, lesion: hepatocellular adenoma, dosed 78 weeks, study length 78 weeks) of 115 mg/kg/day and a TD50 (mouse, strain B6C3F1, females, in feed, site: liver, lesion: hepatocellular adenoma, dosed 107 weeks, study length 107 weeks) of 75.5 mg/kg/day. The TD50 (mouse, strain B6C3F1, females, in feed, site: liver, lesion: hepatocellular carcinoma, dosed 78 weeks, study length 78 weeks) was 343 mg/kg/day, the TD50 (mouse, strain B6C3F1, females, in feed, site: liver, lesion: hepatocellular carcinoma, dosed 107 weeks, study length 107 weeks) was 57.9 mg/kg/day and the carcinogen call (mouse, strain B6C3F1, females, in feed, site: liver, lesion: one or several types, types not named, dosed 52 weeks, study length 52 weeks) was “negative (inactive)”. For the same molecule, the TD50 (mouse, strain B6C3F1, females, in feed, site: ovary, lesion: reticulum-cell sarcoma, type A, dosed 107 weeks, study length 107 weeks) was 912 mg/kg/day, the TD50 (mouse, strain B6C3F1, females, in feed, site: urinary bladder, lesion: reticulum-cell sarcoma, type A, dosed 107 weeks, study length 107 weeks) was 834 mg/kg/day and the TD50 (mouse, strain B6C3F1, females, in feed, site: uterus, lesion: reticulum-cell sarcoma, type A, dosed 107 weeks, study length 107 weeks) was 413 mg/kg/day. For the same molecule, the TD50 (mouse, strain B6C3F1, females, in feed, site: vagina, lesion: reticulum-cell sarcoma, type A, dosed 107 weeks, study length 107 weeks) was 668 mg/kg/day, the TD50 (mouse, strain B6C3F1, males, in feed, site: Harderian gland, lesion: adenoma, dosed 107 weeks, study length 107 weeks) was 615 mg/kg/day and the carcinogen call (mouse, strain B6C3F1, males, in feed, site: liver, lesion: hepatocellular adenoma, dosed 52 weeks, study length 52 weeks) was “negative (inactive)”. The TD50 (mouse, strain B6C3F1, males, in feed, site: liver, lesion: hepatocellular adenoma, dosed 78 weeks, study length 78 weeks) was 636 mg/kg/day (inactive), the TD50 (mouse, strain B6C3F1, males, in feed, site: liver, lesion: hepatocellular adenoma, dosed 107 weeks, study length 107 weeks) was 139 mg/kg/day and the carcinogen call (mouse, strain B6C3F1, males, in feed, site: liver, lesion: hepatocellular carcinoma, dosed 78 weeks, study length 78 weeks) was “negative (inactive)”. The TD50 (mouse, strain B6C3F1, males, in feed, site: liver, lesion: hepatocellular carcinoma, dosed 107 weeks, study length 107 weeks) was 222 mg/kg/day.

`CS(=O)(=O)c1ccc([C@@H](O)[C@@H](CO)NC(=O)C(Cl)Cl)cc1` was tested, and the TD50 (rat, strain F344/DuCrj, females, in drinking water, site: any site (literature study), lesion: one or several types, types not named, dosed 104 weeks, study length 108 weeks) was 43.2 mg/kg/day (inactive), the carcinogen call (rat, strain F344/DuCrj, females, in drinking water, site: liver, lesion: one or several types, types not named, dosed 104 weeks, study length 108 weeks) was “negative (inactive)” and the carcinogen call (rat, strain F344/DuCrj, males, in drinking water, site: any site (literature study), lesion: one or several types, types not named, dosed 104 weeks, study length 108 weeks) was “negative (inactive)”. The TD50 (rat, strain F344/DuCrj, males, in drinking water, site: liver, lesion: hepatocellular adenoma, dosed 104 weeks, study length 108 weeks) was 683 mg/kg/day (inactive).

`CC[C@H]1CN2CCc3cc(OC)c(OC)cc3[C@@H]2C[C@@H]1C[C@H]1NCCc2cc(OC)c(OC)cc21` gave a TD50 (mouse, strain B6C3F1, females, i.p., site: any site (literature study), lesion: several types, types named in the paper, dosed 40 weeks, study length 78 weeks) of 1.2 mg/kg/day, a TD50 (mouse, strain B6C3F1, females, i.p., site: lung, lesion: alveolar/bronchiolar adenoma + alveolar/bronchiolar carcinoma, dosed 40 weeks, study length 78 weeks) of 49.4 mg/kg/day and a TD50 (mouse, strain B6C3F1, males, i.p., site: any site (literature study), lesion: several types, types named in the paper, dosed 44 weeks, study length 78 weeks) of 0.552 mg/kg/day. The TD50 (mouse, strain B6C3F1, males, i.p., site: liver, lesion: hepatocellular adenoma + hepatocellular carcinoma + neoplastic nodule, dosed 44 weeks, study length 78 weeks) was 1.3 mg/kg/day, the TD50 (mouse, strain B6C3F1, males, i.p., site: lung, lesion: alveolar/bronchiolar adenoma + alveolar/bronchiolar carcinoma, dosed 44 weeks, study length 78 weeks) was 1.19 mg/kg/day and the TD50 (rat, strain Sprague-Dawley, females, i.p., site: any site (literature study), lesion: several types, types named in the paper, dosed 52 weeks, study length 83 weeks) was 0.235 mg/kg/day. For the same molecule, the TD50 (rat, strain Sprague-Dawley, males, i.p., site: any site (literature study), lesion: several types, types named in the paper, dosed 52 weeks, study length 83 weeks) was 0.382 mg/kg/day.

With `CCN(Cc1cccc(S(=O)(=O)[O-])c1)c1ccc(C(=C2C=CC(=[N+](C)C)C=C2)c2ccc(N(CC)Cc3cccc(S(=O)(=O)O)c3)cc2)cc1` the carcinogen call (mouse, strain ASH-CS1, females, in feed, site: liver, lesion: one or several types, types not named, dosed 80 weeks, study length 80 weeks) was “negative (inactive)”, the TD50 (mouse, strain ASH-CS1, females, in feed, site: lung, lesion: adenoma, dosed 80 weeks, study length 80 weeks) was 1910 mg/kg/day (inactive) and the carcinogen call (mouse, strain ASH-CS1, males, in feed, site: liver, lesion: one or several types, types not named, dosed 80 weeks, study length 80 weeks) was “negative (inactive)”. For the same molecule, the TD50 (mouse, strain ASH-CS1, males, in feed, site: lung, lesion: adenocarcinoma, dosed 80 weeks, study length 80 weeks) was 4660 mg/kg/day (inactive), the carcinogen call (mouse, strain ASH-CS1, males, in feed, site: lung, lesion: adenoma, dosed 80 weeks, study length 80 weeks) was “negative (inactive)” and the TD50 (rat, strain Sprague-Dawley albino, females, in feed, site: any site (literature study), lesion: malignant tumor, dosed 52 weeks, study length 52 weeks) was 568 mg/kg/day. For the same molecule, the TD50 (rat, strain Sprague-Dawley albino, females, in feed, site: any site (literature study), lesion: several types, types named in the paper, dosed 52 weeks, study length 52 weeks) was 660 mg/kg/day, the TD50 (rat, strain Sprague-Dawley albino, females, in feed, site: ear duct, lesion: carcinoma, dosed 52 weeks, study length 52 weeks) was 1600 mg/kg/day and the TD50 (rat, strain Sprague-Dawley albino, females, in feed, site: mammary gland, lesion: carcinoma, dosed 52 weeks, study length 52 weeks) was 1140 mg/kg/day. The TD50 (rat, strain Sprague-Dawley, females, in feed, site: any site (literature study), lesion: several types, types named in the paper, dosed 51 weeks, study length 52 weeks) was 418 mg/kg/day, the TD50 (rat, strain Sprague-Dawley, females, in feed, site: mammary gland, lesion: carcinoma, dosed 51 weeks, study length 52 weeks) was 573 mg/kg/day and the TD50 (rat, strain Sprague-Dawley, females, in feed, site: skin, lesion: squamous-cell carcinoma, dosed 51 weeks, study length 52 weeks) was 1100 mg/kg/day.

With `Brc1cc(-c2ccc(Br)c(Br)c2Br)cc(Br)c1Br` the TD50 (rat, strain Sprague-Dawley Spartan, females, in feed, site: any site (literature study), lesion: several types, types named in the paper, dosed 57 weeks, study length 57 weeks) was 5.91 mg/kg/day (inactive) and the carcinogen call (rat, strain Sprague-Dawley Spartan, females, in feed, site: liver, lesion: one or several types, types not named, dosed 57 weeks, study length 57 weeks) was “negative (inactive)”.

For `Cc1[nH]cnc1CSCCN=C(NC#N)N(C)N=O`, the carcinogen call (mouse, strain C57BL/6, females, in drinking water, site: liver, lesion: several types, types named in the paper, dosed 102 weeks, study length 104 weeks) was “negative (inactive)”, the carcinogen call (mouse, strain C57BL/6, females, in drinking water, site: lung, lesion: one or several types, types not named, dosed 102 weeks, study length 104 weeks) was “negative (inactive)” and the TD50 (rat, strain Fischer 344, females, in drinking water, site: liver, lesion: neoplastic nodule, dosed 106 weeks, study length 131 weeks) was 43.3 mg/kg/day (inactive). For the same molecule, the TD50 (rat, strain Fischer 344, females, in drinking water, site: pituitary gland, lesion: one or several types, types not named, dosed 106 weeks, study length 131 weeks) was 3.6 mg/kg/day (inactive), the TD50 (rat, strain Fischer 344, females, in drinking water, site: thyroid gland, lesion: one or several types, types not named, dosed 106 weeks, study length 131 weeks) was 18.8 mg/kg/day (inactive) and the carcinogen call (rat, strain Fischer 344, males, in drinking water, site: liver, lesion: neoplastic nodule, dosed 106 weeks, study length 131 weeks) was “negative (inactive)”. For the same molecule, the carcinogen call (rat, strain Sprague-Dawley, females, by gavage, site: any site (literature study), lesion: malignant tumor, dosed 52 weeks, study length 104 weeks) was “negative (inactive)”, the carcinogen call (rat, strain Sprague-Dawley, females, by gavage, site: any site (literature study), lesion: several types, types named in the paper, dosed 52 weeks, study length 104 weeks) was “negative (inactive)” and the TD50 (rat, strain Sprague-Dawley, males, by gavage, site: any site (literature study), lesion: malignant tumor, dosed 52 weeks, study length 104 weeks) was 4820 mg/kg/day (inactive). For the same molecule, the carcinogen call (rat, strain Sprague-Dawley, males, by gavage, site: any site (literature study), lesion: several types, types named in the paper, dosed 52 weeks, study length 104 weeks) was “negative (inactive)”.

In the case of `N#CN=C(N)N`, the carcinogen call (rat, strain F344/DuCrj, females, in feed, site: any site (literature study), lesion: several types, types named in the paper, dosed 104 weeks, study length 113 weeks) is reported as “negative (inactive)”, the carcinogen call (rat, strain F344/DuCrj, females, in feed, site: liver, lesion: one or several types, types not named, dosed 104 weeks, study length 113 weeks) is reported as “negative (inactive)” and the carcinogen call (rat, strain F344/DuCrj, males, in feed, site: any site (literature study), lesion: several types, types named in the paper, dosed 104 weeks, study length 113 weeks) is reported as “negative (inactive)”. The TD50 (rat, strain F344/DuCrj, males, in feed, site: liver, lesion: hepatocellular adenoma, dosed 104 weeks, study length 113 weeks) was 109000 mg/kg/day (inactive) and the TD50 (rat, strain F344/DuCrj, males, in feed, site: subcutaneous tissue, lesion: lipoma, dosed 104 weeks, study length 113 weeks) was 15600 mg/kg/day (inactive).
